The assay in a line: cell cytotoxicity, dose response, cytotoxicity control, CellTiter-Glo (AID 1259333).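 Further: 0% = vehicle neutral controls and -100% = reference inhibitor positive controls.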 To be noted: cytotoxicity, CellTiter-Glo ATP luminescence. Background: In ATP-based viability assays light output follows the ATP content of the culture.

The record followed here is PubChem BioAssay AID1259333 (Broad Institute, 2017).

Calls of active or inactive are those of the source. How the calls were made is not given here; tested in parental BL2 cells.

In the case of `C[C@@H]1CN([C@H](C)CO)C(=O)c2cc(NS(=O)(=O)c3cccs3)ccc2O[C@@H](C)CCCCO[C@H]1CN(C)Cc1ccc(Cl)c(Cl)c1`, the activity change, negative = cytotoxicity (at 10 µM (top of the series)) is 16.1% (inactive). Same read-out and setting: as for `Cc1nc(C)c(C(=O)Nc2ncc([N+](=O)[O-])s2)o1`, the figure is 29.6% (inactive). Regarding `COc1ccc2cc(-c3cc(C(=O)O)c4ccccc4n3)ccc2c1`, the activity change, negative = cytotoxicity (at 10 µM (top of the series)) was 6.64% (inactive). Still for that read-out and setting: the figure for `O=C(C1CC1)N1C[C@@H]2N[C@H](C1)C2c1ccc(-c2cccc(F)c2)cc1` (stereo partly specified) is -17.6% (inactive).

As to `Cn1c(CO)nc2cc(N)ccc21`, the activity change, negative = cytotoxicity (at 10 µM (top of the series)) is 34.6% (inactive). `N#C[C@@H]1[C@@H](c2ccccc2)[C@H](CO)N1C(=O)CN1CCOCC1`: under “at 10 µM (top of the series)”, the activity change, negative = cytotoxicity was 77.6% (inactive). On to `Oc1cc2c(cc1C(c1ccc(Br)cc1)N1CCCC1)OCO2` (stereo unspecified), for which, for the setting “at 10 µM (top of the series)”, the activity change, negative = cytotoxicity is 7.99% (inactive). The same measure, in the same setting: the figure for `CCOc1ncccc1C(=O)OC(C)C(=O)Nc1ccc(Cl)cn1` (stereo unspecified) is 24.8% (inactive). Still for that read-out and setting: the figure for `O=C(NC(=S)/C(=C1\CCCCCN1)[N+](=O)[O-])c1ccccc1` is 16.4% (inactive); for `COc1ccc2c3c([nH]c2c1)[C@H](CO)N(C(=O)Nc1cccc(F)c1)CC31CCN(S(=O)(=O)c2cccc(C)c2)CC1` it is 35% (inactive); for `CCCNC(=O)c1cc2c(c(-c3cccc(-c4cc5ccccc5o4)c3)n1)[C@H](CCO)N(C(=O)NC(C)C)C2` it is 109% (inactive). Turning to `C[C@H](CO)N1C[C@H](C)[C@H](CN(C)Cc2ccc(Oc3ccccc3)cc2)OCc2ccccc2-c2ccccc2C1=O`, the activity change, negative = cytotoxicity (at 10 µM (top of the series)) is 15.4% (inactive). As for `CC1(C)C(=O)C=C[C@@]2(C)C1C=C[C@]1(C)C2CC[C@@]2(C)[C@H](c3ccoc3)OC(=O)[C@H]3O[C@]321` (stereo partly specified), the activity change, negative = cytotoxicity (at 10 µM (top of the series)) was 15.6% (inactive). `CC(C)(C)NCC(=Cc1ccccc1)C(=O)c1ccccc1`: the activity change, negative = cytotoxicity (at 10 µM (top of the series)) was 103% (inactive). Take `CC(OC(=O)c1cc(Br)ccc1O)C(=O)Nc1ccc(S(=O)(=O)N2CCCC2)cc1` (stereo unspecified): the activity change, negative = cytotoxicity (at 10 µM (top of the series)) is 47% (inactive). In the case of `Cc1ccc(C(CC(=O)NCc2ccco2)c2ccc(OC(C)C)cc2)cc1` (stereo unspecified), the activity change, negative = cytotoxicity (at 10 µM (top of the series)) was -3.48% (inactive). With `O=C(C[C@@H]1CC[C@H]2[C@@H](COC[C@@H](O)CN2Cc2cc(F)ccc2F)O1)NCc1ccc(Oc2ccccc2)cc1`, the activity change, negative = cytotoxicity (at 10 µM (top of the series)) is 14.2% (inactive). On to `Cc1ccccc1S(=O)(=O)N1C[C@@H]2N[C@H](C1)C2c1ccc(-c2cccc(C#N)c2)cc1` (stereo partly specified), for which the activity change, negative = cytotoxicity (at 10 µM (top of the series)) was 54.5% (inactive).

For the compound `C[C@H]1CN([C@@H](C)CO)C(=O)c2c(c3ccccc3n2C)-c2ccccc2CO[C@H]1CN(C)S(=O)(=O)c1ccc([N+](=O)[O-])cc1`, the activity change, negative = cytotoxicity (at 10 µM (top of the series)) was 75.5% (inactive). On the same count and under the same terms, the figure for `CC(C)C1CC(N(C)C)=CC(=S)N1` (stereo unspecified) is 24.5% (inactive); for `CCOC(=O)c1c(SCCN2CCCC2)n(-c2ccccc2)c(=S)n(-c2ccccc2)c1=O` it is 63.8% (inactive). Still for that read-out and setting: the figure for `NS(=O)(=O)c1nn2cc(-c3ccccc3)nc2s1` is 65.7% (inactive). Same read-out and setting: as for `Cc1ccccc1-c1ccc2c(c1)O[C@@H](CN(C)C(=O)Nc1ccc(C(F)(F)F)cc1)[C@@H](C)CN([C@@H](C)CO)S2(=O)=O`, the figure is 16.7% (inactive); as for `CC[C@H]1CN2CCc3cc(OC)c(OC)cc3C2C[C@@H]1CC1NCCc2cc(OC)c(OC)cc21` (stereo partly specified), -31.6% (inactive). `CCC(=O)NC(c1ccccc1OC)c1ccc2cccnc2c1O` (stereo unspecified): where the note is “at 10 µM (top of the series)”, the activity change, negative = cytotoxicity was 40.2% (inactive). Still for that read-out and setting: the figure for `Cc1ccc(OC(=O)N(C)C[C@@H]2OCc3ccccc3-c3c(n(C)c4ccccc34)C(=O)N([C@@H](C)CO)C[C@H]2C)cc1` is 5.02% (inactive). Regarding `C[C@@H]1CN([C@@H](C)CO)C(=O)c2ccccc2-c2ccccc2CO[C@@H]1CN(C)C(=O)c1cc(Cl)cc(Cl)c1`, for the setting “at 10 µM (top of the series)”, the activity change, negative = cytotoxicity is 38.8% (inactive). The same measure, in the same setting: as for `Cc1ccc(C2(C)NC(=O)N(CC(=O)Nc3cccnc3Cl)C2=O)cc1` (stereo unspecified), the figure is 21.9% (inactive). On to `C[C@@H]1CN([C@H](C)CO)C(=O)c2c(c3ccccc3n2C)-c2ccccc2CO[C@@H]1CN(C)S(=O)(=O)c1ccccc1C#N`, for which the activity change, negative = cytotoxicity (at 9 µM (top of the series)) is 42.3% (inactive).

On to `COc1ccccc1NC(c1cccnc1)c1ccc2cccnc2c1O` (stereo unspecified), for which the activity change, negative = cytotoxicity (at 10 µM (top of the series)) was 123% (inactive). The same measure, in the same setting: as for `C[C@H]1CN([C@@H](C)CO)C(=O)c2cccc(NC(=O)Nc3ccc(F)cc3)c2O[C@H]1CN(C)S(=O)(=O)c1ccc(Cl)cc1`, the figure is 55% (inactive); as for `Cc1cccc(-c2ccc(C3[C@@H]4CN(C(=O)Nc5ccc(C(F)(F)F)cc5)C[C@H]3N4)cc2)c1` (stereo partly specified), 26.3% (inactive). On the same count and under the same terms, as for `CC(=O)NC12CC3CC(C1)CC(C(=O)OCC(=O)c1ccc4c(c1)OCCO4)(C3)C2`, the figure is 20.6% (inactive); as for `CC12CN3CC(C)(CN(C1)C3c1ccc3c(c1)OCO3)C2=O` (stereo unspecified), 48.6% (inactive). For `O=C(Nc1ccc(C(F)(F)F)cc1)Nc1ccc2c(c1)[C@H]1C[C@@H](CC(=O)N3CCc4ccccc4C3)O[C@@H](CO)[C@H]1O2`, the activity change, negative = cytotoxicity (at 3.5 µM (top of the series)) was 30.5% (inactive). For `CC1CNCCN1S(=O)(=O)c1cccc2cnccc12` (stereo unspecified), for the setting “at 10 µM (top of the series)”, the activity change, negative = cytotoxicity was -37.9% (inactive). On the same count and under the same terms, as for `O=C(CNCCO)N1N=C(c2cccs2)CC1c1cccs1` (stereo unspecified), the figure is 18.9% (inactive). Regarding `COc1cccc(S(=O)(=O)N(C)C[C@H]2OCc3ccccc3-c3c(n(C)c4ccccc34)C(=O)N([C@@H](C)CO)C[C@H]2C)c1`, the activity change, negative = cytotoxicity (at 3.5 µM (top of the series)) is 15.7% (inactive). For the compound `COc1ccc(CN2CC3(CN(C(=O)Cc4ccccc4)C3)c3c([nH]c4cc(OC)ccc34)[C@H]2CO)cc1`, under “at 10 µM (top of the series)”, the activity change, negative = cytotoxicity was 21.8% (inactive).

`CCCCc1nc2ccccc2[nH]1`: the activity change, negative = cytotoxicity (at 10 µM (top of the series)) is 13.9% (inactive). On the same count and under the same terms, the figure for `COc1ccc(S(=O)(=O)N(C)C[C@@H]2Oc3ccc(NC(=O)Nc4ccc(C(F)(F)F)cc4)cc3C(=O)N([C@@H](C)CO)C[C@@H]2C)cc1` is 84.5% (inactive).

`O=C(C1CCCC1)N1CC(=O)N2[C@@H](CO)[C@@H](c3ccc(C#CCc4ccccc4)cc3)[C@@H]2C1`: the activity change, negative = cytotoxicity (at 10 µM (top of the series)) is 53.6% (inactive). Turning to `Cc1ccc2c(c1)C(O)(CC(=O)/C=C/C=C/c1ccccc1)C(=O)N2` (stereo unspecified), under “at 10 µM (top of the series)”, the activity change, negative = cytotoxicity was 24.8% (inactive). Take `COc1cccc(S(=O)(=O)N(C)C[C@@H]2OCc3ccccc3-c3c(n(C)c4ccccc34)C(=O)N([C@H](C)CO)C[C@@H]2C)c1`: the activity change, negative = cytotoxicity (at 10 µM (top of the series)) was 41.8% (inactive).

Take `CC(=O)Nc1ccc(S(=O)(=O)c2ccc(N)cc2)cc1`: the activity change, negative = cytotoxicity (at 10 µM (top of the series)) is 13.9% (inactive). On the same count and under the same terms, as for `O=c1cc(-c2ccc(O)cc2)oc2ccc3ccccc3c12`, the figure is 20.1% (inactive); as for `O=C(CN1C(=O)c2ccccc2S1(=O)=O)Nc1ncc(Cl)cc1Cl`, 30.7% (inactive); as for `CCCNC(=O)N1[C@H](CO)[C@H](c2ccc(-c3cccc(OC)c3)cc2)[C@@H]1C#N`, 27% (inactive). Same read-out and setting: as for `O=C(O)c1ccc(Nc2nc3c(s2)CCCC3)cc1`, the figure is 38.4% (inactive); as for `O=C(C1CCOCC1)N1CC(=O)N2[C@H](C1)[C@@H](c1ccc(C#CCc3ccccc3)cc1)[C@@H]2CO`, 47.9% (inactive); as for `Cc1ccccc1C(=O)N1CCC(C(=O)Nc2nc3ccc(F)cc3s2)CC1`, 18.4% (inactive). The same measure, in the same setting: as for `COc1ccc(S(=O)(=O)N(C)C[C@H]2Oc3ccc(NC(=O)Nc4ccc(C(F)(F)F)cc4)cc3C(=O)N([C@@H](C)CO)C[C@@H]2C)cc1`, the figure is 33.2% (inactive); as for `N#C[C@@H]1[C@H](c2ccc(C#Cc3ccc(F)cc3)cc2)[C@@H](CO)N1C(=O)C1CCC1`, 5.33% (inactive); as for `C=C1C(=O)OC2C=C(CO)C3OC3C3OC3(C)CC(OC(=O)/C(=C/C)COC(C)=O)C12` (stereo unspecified), 17.5% (inactive). For the compound `CC1(C)C(=O)C=C[C@@]2(C)C1C(=O)C(=O)[C@]1(C)C2CC[C@@]2(C)[C@H](c3ccoc3)C[C@H]3O[C@]321` (stereo partly specified), the activity change, negative = cytotoxicity (at 10 µM (top of the series)) is 161% (inactive). Turning to `Cc1ccc2nc(C(F)(F)F)c(C#N)c(N)c2c1`, the activity change, negative = cytotoxicity (at 10 µM (top of the series)) is 1.7% (inactive). In the case of `C[C@H]1CN([C@@H](C)CO)C(=O)c2c(c3ccccc3n2C)-c2ccccc2CO[C@H]1CN(C)C(=O)Nc1ccccc1C(F)(F)F`, where the note is “at 10 µM (top of the series)”, the activity change, negative = cytotoxicity was -4.57% (inactive).

With `Cc1ccc(N2CC(C(=O)Nc3nccs3)CC2=O)cc1Cl` (stereo unspecified), the activity change, negative = cytotoxicity (at 10 µM (top of the series)) was 22.3% (inactive). Same read-out and setting: as for `CC(=O)OC1CCC2(C)C(CCC3C4CC=C(C(C)=O)C4(C)OC(=O)CC32)C1` (stereo unspecified), the figure is 133% (inactive).

Regarding `O=C1CC(c2ccc3c(c2)OCO3)Sc2nc3ccccc3n21` (stereo unspecified), the activity change, negative = cytotoxicity (at 10 µM (top of the series)) was 31.6% (inactive). `CC1CC(C)C(=O)C(C(CC2CC(=O)NC(=O)C2)OC(=O)CC(=O)c2ccccc2)C1` (stereo unspecified): the activity change, negative = cytotoxicity (at 10 µM (top of the series)) was 11.5% (inactive). `N#C[C@H]1[C@@H](c2ccc(C#CC3CCCCC3)cc2)[C@H](CO)N1C(=O)Nc1ccc(F)cc1`: the activity change, negative = cytotoxicity (at 10 µM (top of the series)) was 22.4% (inactive). The same measure, in the same setting: as for `Cc1cc(C)c2c(c1)SC1=NC(c3ccccc3)(C(F)(F)F)NC(=O)N12` (stereo unspecified), the figure is 30.7% (inactive); as for `O=C(Nc1nc2ccccc2s1)c1ccc(OCC2CCCO2)cc1` (stereo unspecified), 24.7% (inactive).

Turning to `CS(=O)(=O)c1ccc(C(=O)OCC(=O)NC(=O)C2COc3ccccc3O2)cc1[N+](=O)[O-]` (stereo unspecified), the activity change, negative = cytotoxicity (at 10 µM (top of the series)) is 25.3% (inactive).

Consider `CCN(CC(=O)Nc1ccc(NC(C)=O)cc1)C(=O)C1CCCN(C(=O)c2ccc(Cl)cc2)C1` (stereo unspecified), for which the activity change, negative = cytotoxicity (at 10 µM (top of the series)) is 33.9% (inactive).
